# Measured values taken from patent US11524003B2, “Alpha-amino esters of hydroxypropylthiazolidine carboxamide derivative and salt form, crystal polymorph thereof” (ObsEva S.A., priority 2016, dated 2022).
# “Also recorded” adds a separate entry of the source. Where a name gives a salt, the structure may show the parent alone. Read-outs that look alike come from different tables or passages of the source. Where a SMILES comes first, the peptide text is derived from it. Bridges are numbered along the chain shown (N, C = ends). [ ]: non-standard residue; d: D form. Orn = NCCC[C@H](N)C(=O)O; Mpa = O=C(O)CCS
# How the values were obtained:
# [1] = test system: LPS-induced parturition; type: in vivo; conditions: LPS-treated mice
# Experimental: (§1) Tocolytic effects were assessed by measuring the time from induction to delivery of the first pup for each mouse in the treatment and control cohorts, the time from time from induction to completion of delivery among all mice in each cohort, and viability of offspring among mice in each cohort. The inducers of preterm parturition used in this study were RU486 (also referred to as mifepristone), a steroidal antiprogestin that promotes cervical dilatation and provokes enhanced uterine contractility and sensitivity to prostaglandins, and lipopolysaccharide (LPS), a mediator of inflammation.
# (§2) To induce labor at an early gestational age, a single dose of RU486 was administered to each mouse subcutaneously at 2.5 mg/kg (t=0). Mice treated with LPS received a single intraperitoneal injection of LPS at 2 mg/kg (t=0). Atosiban was administered to CD-1 mice by subcutaneous injection at 300 mg/kg at two distinct sites. These injections were performed at 5 hours (t=5) and 29 hours (t=29) following treatment with the inducing agent RU486 or LPS. […] Compound III was administered to CD-1 mice orally at either 10 mg/kg, 30 mg/kg, or 100 mg/kg at 5 hours (t=5), 19 hours (t=19), 29 hours (t=29), and 43 hours (t=43) following treatment with the inducing agent RU486 or LPS. […] The viability of pups delivered in each cohort was assessed by galenic hydrostatic pulmonary docimasy.
# [2] = Aqueous solubility of compound I salts (FIG. 8); type: physicochemical; conditions: water
# [3] = Moisture sorption/desorption and relative humidity stability of compound I salts; type: physicochemical; conditions: for Hygroscopicity: moisture balance data, hydrochloride
# Experimental: Moisture sorption/desorption (MB) data were collected on a VTI SGA-100 Vapor Sorption Analyzer. Sorption and desorption data were collected over a range of 5% to 95% relative humidity (RH) at 10% RH intervals under a nitrogen purge. Samples were not dried prior to analysis. Equilibrium criteria used for analysis were less than 0.0100% weight change in 5 minutes, with a maximum equilibration time of 3 hours if the weight criterion was not met. Data were not corrected for the initial moisture content of the samples. NaCl and PVP were used as calibration standards.
# [4] = test system: RU486-induced parturition; assay: RU486-induced preterm parturition in CD-1 mice
# Experimental: as §1, §2
# [5] = nifedipine 5 mg/kg oral, compound III 10 mg/kg oral, alone or combined
smiles,measurement,setting,value
"COC(=O)C1=C(C)NC(C)=C(C(=O)OC)C1c1ccccc1[N+](=O)[O-] [nifedipine, reference compound]",Fractional viability of offspring,[1]; [5],90.39%±5.34%
"CC(C)[C@H](N)C(=O)OCC[C@H](NC(=O)[C@@H]1SCCN1S(=O)(=O)c1ccc(-c2ccccc2)cc1)c1ccc(F)cc1 [Compound III, (3S)-3-({[(2S)-3-(biphenyl-4-ylsulfonyl)-1,3-thiazolidin-2-yl]carbonyl}-amino)-3-(4-fluorophenyl)propyl L-valinate hydrochloride]",solubility,[2],< 1000 µg/mL
same,Stability at elevated relative humidity,[3],extended stability at elevated relative humidity
same,Weight loss upon desorption,[3],approximately 0.7%
same,Deliquescence at approximately 95% RH,"[3]; 2 days, approximately 95% RH",did not deliquesce
same,Weight gain on sorption,[3]; from 5 to 95% relative humidity,Approximately 0.9%
same,Hygroscopicity,[3],low hygroscopicity
same,Hygroscopicity,[3]; listed as chloride salt,non-hygroscopic
same,Hygroscopicity,[3]; listed as hydrochloride salt,low hygroscopicity; also recorded: non-hygroscopic
same,Effect on fractional viability of offspring,[1],dose-dependent increase in the fractional viability of offspring
same,Fractional viability of offspring,[1]; compound III 100 mg/kg oral,69.41%±15.76%
same,Fractional viability of offspring,[1]; [5],57.90%±14.89%
same,Time to delivery,[1]; [5],23.98 ± 0.66 h
same,Effect on time to delivery,[4]; RU486-treated mice,increase in time to delivery compared to vehicle
same,Time to delivery,"[4]; RU486-treated mice, nifedipine 5 mg/kg oral, compound III 100 mg/kg oral, alone or combined",23.70 ± 0.60 h
"CCOc1ccc(C[C@H]2NC(=O)CCSSC[C@@H](C(=O)N3CCC[C@H]3C(=O)N[C@@H](CCCN)C(=O)NCC(N)=O)NC(=O)[C@H](CC(N)=O)NC(=O)[C@H]([C@@H](C)O)NC(=O)[C@H]([C@@H](C)CC)NC2=O)cc1 [atosiban, reference compound] ([Mpa][dY](Et)ITNCP[Orn]G-NH2; disulfide 1-6)",Effect on time to delivery,[1],increase in time to delivery
same,Time to delivery,"[1]; atosiban 300 mg/kg s.c., compound III 100 mg/kg oral, alone or combined",28.41 ± 2.99 h
"CC#C[C@]1(O)CC[C@H]2[C@@H]3CCC4=CC(=O)CCC4=C3[C@@H](c3ccc(N(C)C)cc3)C[C@@]21C [RU486, mifepristone]",Mean delivery time following induction,[4]; RU486 2.5 mg/kg s.c. at gestational age 17 days,21 ± 1.00 h
same,Mice excluded due to death or sacrifice during the study,"[4]; female, CD-1, mouse, in vivo, 2.5 mg/kg",3%
same,Pups delivered alive,[4]; inducer alone,96%
